Structures can show the parent of a compound that is named as a salt. Where two headings read alike, the source gives them in different places.
Assays:
Lgr5+ cells = test: Lgr5+ Assay (Lgr5+ cell assay in vitro); assay type: cell-based
[1] = Perilymph Conc. listed for agents (Tables 14-25)
[2] = cited from earlier work
GSK-3 alpha = GSK-3 alpha (Homo sapiens, UniProt P49840); settings: cited from earlier work
LSD1 [3] = target: T1, LSD1 (Homo sapiens, UniProt O60341); settings: Table 18, LSD1; read-out: pKi or IC50 (converted); cited from earlier work
EZH2 [4] = target: T2, EZH2 (Homo sapiens, UniProt Q15910); settings: Table 19, EZH2; read-out: pKi or IC50 (converted); cited from earlier work
LSD1 [5] = target: T1, LSD1; settings: Table 18, cited from earlier work
KDM = settings: cited from earlier work
[6] = Reconstitution time of lyophilized compositions (Tables E, 28, 35); assay type: physicochemical; settings: for Reconstitution time (minutes) water + DMSO / Reconstitution time (minutes) with water: lyophilized 16.15% P407 with salt at 533.25 mM; for Reconstitution time (minutes) water + DMSO: reconstituted with Diluent ([…] DMSO in water); for Reconstitution time (minutes) with water: reconstituted with water; for reconstitution time of lyophilized poloxamer with added organic acid salt: poloxamer 16.15%, salt 533.25 mM
Method: Diluent 1, 0.85 mL+lyophilized cake. […] Gentle tapping on the exterior of the vessel to help the cake dissolve in the Diluent may be required while keeping it in fridge (or ice bath). To avoid degradation of the composition, minimize stirring and/or vortexing.
Diluent 1, 0.95 mL+Placebo cake: Using a syringe, add the Diluent to the Placebo cake, and rest in a fridge or ice bath (2-8° C.) for 60 minutes or until clear solution is formed. Gentle tapping on the exterior of the vessel to help the cake dissolve in the Diluent may be required while keeping it in fridge (or ice bath). To avoid degradation of the composition, minimize stirring and/or vortexing.
Powder P407 (i.e. non-lyophilized) can be obtained from BASF.
Reconstitution of lyophilized P407 (Placebo) and powder P407 was done using 850 μL Diluent (see above for example preparations of a Diluent) in a vial.
Therefore, to probe the effect of salts other than sodium valproate on reconstitution time, a poloxamer solution at 16.15% concentration either alone or including a salt (e.g. an inorganic salt or organic acid salt) at a concentration of 533.25 mM, was lyophilized. The lyophilized material was then reconstituted using Diluent for reconstitution (6.4% DMSO by wt. % in water) or with water.
Building on the results of Examples 14 to 16, further lyophilized compositions were manufactured and had their reconstitution times evaluated. […] The further lyophilized compositions were made in accordance with Example 10, and reconstituted in accordance with Example 12.

EZH2 [7] = target: T2, EZH2; settings: Table 19; cited from earlier work
[8] = Human In Vivo Conc listed for agents
[9] = Table 14, listed concentration, no test described
[10] = Table 21, KDM 5, read-out: Select KDM 5

T2 sequence (Q15910 whole entry, species assumed): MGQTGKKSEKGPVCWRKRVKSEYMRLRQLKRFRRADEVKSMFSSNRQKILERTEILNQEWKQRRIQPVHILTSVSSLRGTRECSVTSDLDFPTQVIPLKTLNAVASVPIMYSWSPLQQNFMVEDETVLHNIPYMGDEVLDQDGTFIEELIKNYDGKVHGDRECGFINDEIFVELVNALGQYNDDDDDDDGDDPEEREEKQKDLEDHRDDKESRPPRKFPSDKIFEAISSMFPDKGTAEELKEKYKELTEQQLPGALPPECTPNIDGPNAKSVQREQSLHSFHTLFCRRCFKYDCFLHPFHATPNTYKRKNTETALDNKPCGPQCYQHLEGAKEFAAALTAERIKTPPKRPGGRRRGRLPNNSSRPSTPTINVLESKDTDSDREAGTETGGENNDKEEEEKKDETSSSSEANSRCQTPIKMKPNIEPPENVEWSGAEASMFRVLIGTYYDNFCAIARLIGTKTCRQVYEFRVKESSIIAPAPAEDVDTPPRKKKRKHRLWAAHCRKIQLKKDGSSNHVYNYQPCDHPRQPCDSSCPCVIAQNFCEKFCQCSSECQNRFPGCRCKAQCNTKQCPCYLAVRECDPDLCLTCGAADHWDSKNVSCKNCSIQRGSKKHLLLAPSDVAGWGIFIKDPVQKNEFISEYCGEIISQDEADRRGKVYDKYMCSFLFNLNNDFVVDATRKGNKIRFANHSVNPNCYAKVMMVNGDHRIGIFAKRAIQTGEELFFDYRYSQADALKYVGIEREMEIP
T2 sequence (O75530 whole entry partner, species assumed): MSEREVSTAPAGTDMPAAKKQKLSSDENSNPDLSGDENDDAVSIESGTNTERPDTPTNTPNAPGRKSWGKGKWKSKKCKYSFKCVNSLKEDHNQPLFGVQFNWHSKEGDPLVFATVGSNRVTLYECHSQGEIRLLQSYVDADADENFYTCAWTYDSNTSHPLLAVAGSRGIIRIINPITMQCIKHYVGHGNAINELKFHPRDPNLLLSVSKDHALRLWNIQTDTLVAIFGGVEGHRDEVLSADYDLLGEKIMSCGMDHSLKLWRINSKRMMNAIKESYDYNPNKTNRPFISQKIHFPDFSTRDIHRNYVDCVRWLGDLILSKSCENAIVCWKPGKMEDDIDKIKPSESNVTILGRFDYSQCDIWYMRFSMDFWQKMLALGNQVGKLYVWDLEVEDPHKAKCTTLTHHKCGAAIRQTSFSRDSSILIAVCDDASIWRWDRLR
T2 sequence (Q15022 whole entry partner, species assumed): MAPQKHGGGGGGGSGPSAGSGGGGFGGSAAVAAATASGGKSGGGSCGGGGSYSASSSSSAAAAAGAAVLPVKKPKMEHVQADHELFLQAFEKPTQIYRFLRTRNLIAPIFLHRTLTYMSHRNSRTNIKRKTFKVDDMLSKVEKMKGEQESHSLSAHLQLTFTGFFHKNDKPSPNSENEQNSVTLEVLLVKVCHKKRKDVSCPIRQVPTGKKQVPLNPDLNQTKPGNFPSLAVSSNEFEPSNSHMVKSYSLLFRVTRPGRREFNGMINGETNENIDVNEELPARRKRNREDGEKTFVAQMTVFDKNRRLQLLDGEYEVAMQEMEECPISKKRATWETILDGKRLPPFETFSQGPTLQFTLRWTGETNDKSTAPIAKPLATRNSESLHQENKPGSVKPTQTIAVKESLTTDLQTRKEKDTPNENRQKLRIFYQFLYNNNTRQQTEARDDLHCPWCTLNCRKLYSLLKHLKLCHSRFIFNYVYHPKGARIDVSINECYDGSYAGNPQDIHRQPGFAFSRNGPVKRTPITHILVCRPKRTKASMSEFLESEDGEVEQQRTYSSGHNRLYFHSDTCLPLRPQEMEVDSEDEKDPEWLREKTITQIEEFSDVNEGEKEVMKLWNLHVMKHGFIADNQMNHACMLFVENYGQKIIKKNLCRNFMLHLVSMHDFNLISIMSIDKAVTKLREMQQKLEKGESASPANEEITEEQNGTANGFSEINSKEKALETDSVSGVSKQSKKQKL
Chain of GSK-3 alpha (P49840 whole entry): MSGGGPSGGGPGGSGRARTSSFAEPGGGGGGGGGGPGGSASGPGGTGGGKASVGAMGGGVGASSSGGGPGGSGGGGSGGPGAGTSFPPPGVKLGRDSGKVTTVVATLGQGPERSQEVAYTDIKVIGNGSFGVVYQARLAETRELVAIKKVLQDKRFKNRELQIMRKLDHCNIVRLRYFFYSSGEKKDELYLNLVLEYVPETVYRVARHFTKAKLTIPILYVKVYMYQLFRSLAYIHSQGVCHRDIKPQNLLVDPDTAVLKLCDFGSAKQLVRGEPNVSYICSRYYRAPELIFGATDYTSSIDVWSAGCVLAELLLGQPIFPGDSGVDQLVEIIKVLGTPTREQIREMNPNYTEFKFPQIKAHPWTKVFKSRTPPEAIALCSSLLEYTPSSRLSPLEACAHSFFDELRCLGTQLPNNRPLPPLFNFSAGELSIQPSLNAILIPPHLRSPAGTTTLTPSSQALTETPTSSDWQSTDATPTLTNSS

## O=C(N/N=C/c1c(O)ccc2ccccc12)c1ccncc1 [AS 8351]
Lgr5+ cells; Table 21
  Lgr5+ Assay: 1 to 3 µM
[1]; Table 21
  Perilymph Conc: 1 to 3 µM
[2]; Table 21
  Human In Vivo Conc: 1 to 3 µM

## N#Cc1ccc2[nH]c(O)c(-c3ccc(CN4CCOCC4)cn3)c2c1 [AZD 1080]
[1]; [9]
  Perilymph Conc: 1 to 5 µM
GSK-3 alpha
  GSK-3 alpha: 6.9 nM

## COc1c(O)cc2oc3cc(O)c(CC=C(C)C)c(O)c3c(=O)c2c1CC=C(C)C [Alpha-mangostin]
LSD1 [3]
  IC50: 2800 nM

## COc1ccc(CCN2CCC(Nc3nc4ccccc4n3Cc3ccc(F)cc3)CC2)cc1 [Astemizole]
EZH2 [4]
  IC50: 94000 nM

## COC(=O)c1cc(CN2CCN(C(=N)N)CC2)cc(C(=O)N2CCN(C(=O)c3ccc(C(=N)N)cc3)CC2)c1 [CBB-1007]
Lgr5+ cells; Table 18, result in words
  Lgr5+ Assay: Activity
LSD1 [3]
  IC50: 2100 nM
LSD1 [5]; read-out: Literat. Cell IC50
  IC50: < 5000 nM

## COc1cc(C)[nH]c(=O)c1CNC(=O)c1c(C)n([C@H](C)C2CCN(CC(F)(F)F)CC2)c2ccccc12 [CPI-1205]
[1]; Table 19
  Perilymph Conc: 0.01 to 1 µM
[2]; Table 19
  Human In Vivo Conc: 0.025 to 0.25 µM

## CCc1c(-c2ccccc2C)nc2c(C#N)c[nH]n2c1=O [CPI-4203]
KDM; [10]
  IC50: 1100 nM

## [Ca+2].[Cl-].[Cl-] [Calcium Chloride]
[6]
  Reconstitution time (minutes) water + DMSO: plugs remain at end of 180 minutes
  Reconstitution time (minutes) with water: plugs remain at end of 180 minutes

## Nc1nccc2c1ncn2C1C=C(CO)C(O)C1O (stereo not drawn) [DZNep]
Lgr5+ cells; Table 19, result in words
  Lgr5+ Assay: Activity
EZH2 [7]
  Lit Cell Poten: 1000 nM

## CCc1c(N(CC)C2CCOCC2)cc2oc(C3CCN(C(C)C)CC3)cc2c1C(=O)NCc1c(C)cc(C)[nH]c1=O [EBI-2511]
EZH2 [4]
  IC50: 4 nM

## N#Cc1c2c(c3nncn3c1NCc1ccco1)CN(Cc1ccccc1)CC2 [EED162]
EZH2 [4]
  IC50: 30 nM
EZH2 [7]
  Lit Cell Poten: 80 nM

## CS(=O)(=O)c1ccc(-c2cnc(NCc3ccco3)n3cnnc23)cc1 [EED226]
Lgr5+ cells; Table 19, result in words
  Lgr5+ Assay: Activity

## CC(C)N(CCCNC(=O)Nc1ccc(C(C)(C)C)cc1)C[C@H]1O[C@@H](n2ccc3c(N)ncnc32)[C@H](O)[C@@H]1O [EPZ004777]
Lgr5+ cells; Table 20
  Lgr5+ Assay: 0.6 to 45 µM
[1]; Table 20, listed concentration, no test described
  Perilymph Conc: 0.6 to 45 µM
[8]; Table 20
  Human In Vivo Conc: 0.1 to 45 µM

## CCN(c1cc(C#CCN2CCOCC2)cc(C(=O)NCc2c(C)cc(C)[nH]c2=O)c1C)[C@H]1CC[C@H](N(C)CCOC)CC1 [EPZ-011989]
EZH2 [7]
  Lit Cell Poten: 94 nM

## CCOc1ccc2nc3cc(N)ccc3c(N)c2c1 [Ethacridine, reference compound]
Lgr5+ cells; Table 22, result in words
  Lgr5+ Assay: Activity

## CC1=C(C(=O)OC2CCCCC2)C(c2ccc([N+](=O)[O-])cc2)C2=C(CC(C)(C)CC2=O)N1 (stereo not drawn) [FLI-06]
LSD1 [3]
  IC50: 92 nM

## CCCc1cc(C)[nH]c(=O)c1CNC(=O)c1cc(-c2ccnc(N3CCN(C)CC3)c2)cc2c1cnn2C(C)C [GSK343]
EZH2 [7]
  Lit Cell Poten: 174 nM

## Cc1cc(C)c(CNC(=O)c2cc(-c3ccc(N4CCN(C)CC4)nc3)cc3c2cnn3C(C)C)c(=O)[nH]1 [GSK926]
EZH2 [4]
  IC50: 7.9 nM
EZH2 [7]
  Lit Cell Poten: 324 nM

## Cc1ccc(C(=O)Nc2c[nH]nc2C(=O)NCCCOC(C)C)cn1 [GSK XXII]
Lgr5+ cells; Table 14
  Lgr5+ Assay: 0.2 to 1 µM
[1]; [9]
  Perilymph Conc: 0.2 to 1 µM
GSK-3 alpha
  GSK-3 alpha: 2.3 nM

## CCOC(=O)CCNc1cc(N2CCc3ccccc3CC2)nc(-c2ccccn2)n1 [GSK-J4]
KDM; [10]
  IC50: 170 nM
KDM; Table 21, KDM 6, read-out: Select KDM 6
  IC50: 28 nM

## c1ccc([C@@H]2C[C@H]2NC2CCNCC2)cc1 [GSK-LSD1]
Lgr5+ cells; Table 18, lower end of concentration range
  Lgr5+ Assay: ≥ 4 nM-
[1]; Table 18, lower end of range
  Perilymph Conc: ≥ 4 nM-
[1]; Table 18, range or its upper end
  Perilymph Conc: ≤ 50 µM
[2]; Table 18
  Human Plasma Conc: 1 to 100 nM

## NO [Hydroxylamine]
LSD1 [3]
  IC50: 121 nM

## C=CCNc1nc(N)c(C(=O)c2ccc(Cl)s2)s1 [IBS008738, reference compound]
Lgr5+ cells; Table 22
  Lgr5+ Assay: 1.1 to 30 µM
[1]; Table 22, listed concentration, no test described
  Perilymph Conc: 1.1 to 30 µM

## Clc1ccc(N/N=C(\c2ccccc2)c2ccccn2)nc1 [JIB-04]
KDM; [10]
  IC50: 220 nM

## CN(C)CCCNc1nc(NC2CCN(Cc3ccccc3)CC2)c2ccccc2n1 [MC2694]
LSD1 [3]
  IC50: 1000 nM

## [Cl-].[Cl-].[Mg+2] [Magnesium Chloride]
[6]
  Reconstitution time (minutes) water + DMSO: 180 min
  Reconstitution time (minutes) with water: 180 min

## N[C@H]1CC[C@H](N[C@@H]2C[C@H]2c2ccccc2)CC1 [ORY-1001]
Lgr5+ cells; Table 18, result in words
  Lgr5+ Assay: Activity

## C=CC(=O)Nc1cc(Nc2nccc(-c3cn(C)c4ccccc34)n2)c(OC)cc1N(C)CCN(C)C [Osimertinib]
LSD1 [5]
  Literat. Cell: 43 nM

## NNCCc1ccccc1 [Phenelzine sulfate]
[8]; human, plasma, Table 18, value in brackets, converted
  Cmax: 73 to 440 nM
LSD1 [5]
  Literat. Cell: 900 nM

## [Cl-].[K+] [Potassium Chloride]
[6]
  Reconstitution time (minutes) water + DMSO: 168 min
  Reconstitution time (minutes) with water: 180 min

## O=P(O)(O)O [Potassium Phosphate]
[6]
  Reconstitution time (minutes) water + DMSO: undissolved at end of 180 minutes
  Reconstitution time (minutes) with water: undissolved at end of 180 minutes

## C/C(=N\NC(=O)c1cccc(S(=O)(=O)N2CCOCC2)c1)c1cc(Cl)ccc1O [SP-2509]
Lgr5+ cells; Table 18, result in words
  Lgr5+ Assay: Activity
LSD1 [3]
  IC50: 13 nM
LSD1 [5]
  Literat. Cell: 350 to 650 nM

## C#CCC(CCCCCC)C(=O)[O-].[Na+] (stereo not drawn) [Sodium 2-(prop-2-yn-1-yl) octanoate, reference compound]
[6]
  reconstitution time of lyophilized poloxamer with added organic acid salt: 420 min

## C#CCC(CCCCCC)C(=O)[O-].[Na+] (stereo not drawn) [Sodium 2-(prop-2-yn-l-yl) Octanoate]
[6]
  Reconstitution time (minutes) water + DMSO: 4 min
  Reconstitution time (minutes) with water: 4 min

## O=C([O-])O.[Na+] [Sodium Bicarbonate]
[6]
  Reconstitution time (minutes) water + DMSO: undissolved at end of 180 minutes
  Reconstitution time (minutes) with water: undissolved at end of 180 minutes

## [Cl-].[Na+] [Sodium Chloride]
[6]
  Reconstitution time (minutes) water + DMSO: 150 min
  Reconstitution time (minutes) with water: 150 min

## Cc1coc2c1C(=O)C(=O)c1c-2ccc2c1CC[C@@H](O)[C@]2(C)O [Tanshindiol C]
EZH2 [4]
  IC50: 550 nM

## CCN(c1cc(-c2ccc(CN3CCOCC3)cc2)cc(C(=O)NCc2c(C)cc(C)[nH]c2=O)c1C)C1CCOCC1 [Tazemetostat]
[1]; Table 19
  Perilymph Conc: 0.37 to 1.1 µM
[8]; Table 19, value in brackets, converted
  Human In Vivo Conc: (200-1600 nM)
[2]; Table 19
  Human In Vivo Conc: 100 to 800 ng/mL

## CCCc1cc(C)[nH]c(=O)c1CNC(=O)c1cc(-c2ccc(N3CCN(C(C)C)CC3)nc2)cc2c1cnn2C(C)C [UNCI 999]
Lgr5+ cells; Table 19, result in words
  Lgr5+ Assay: Activity
EZH2 [4]
  IC50: 10 nM
EZH2 [7]
  Lit Cell Poten: 124 nM

## Magnesium divalproate [reference compound]
[6]
  Reconstitution time (minutes) water + DMSO: 14 min
  Reconstitution time (minutes) with water: 14 min
  reconstitution time of lyophilized poloxamer with added organic acid salt: 420 min

## Tanshindiol B
EZH2 [4]
  IC50: 520 nM

From patent US20220192984A1, “PHARMACEUTICAL COMPOSITIONS COMPRISING OTIC THERAPEUTIC AGENTS AND RELATED METHODS” (Frequency Therapeutics, Inc., priority 2018, published 2022)
